Data as given in PMC5298231, “The Malaria Parasite's Lactate Transporter PfFNT Is the Target of Antiplasmodial Compounds Identified in Whole Cell Phenotypic Screens” (PLoS Pathogens, 2017).

Tests used:
Dd2 parent parasites = assay: Parasite proliferation assay, Dd2 parent; type: cell-based, Plasmodium falciparum; conditions: Dd2 parent; mean ± SEM; read-out: IC50 value, growth inhibition
Method: Parasite proliferation was measured in 96-well plates using a fluorescent DNA-intercalating dye [45]. The assays were initiated with erythrocytes infected with predominantly ring-stage parasites, and the starting parasitaemia was 0.5–1% and the haematocrit was 1%.

3D7 parasites = conditions: ref http://www.mmv.org/research-development/malaria-box-supporting-information; read-out: IC50 against 3D7 parasites, other groups; cited from earlier work
[1] = test system: 3D7 P. falciparum trophozoites; assay: Cytosolic pH (pHcyt) measurement in BCECF-loaded saponin-isolated trophozoites
non-injected oocytes = type: cell-based, Xenopus laevis; conditions: full range of inhibitor concentrations
[2] = ref [36]; cited from earlier work
Dd2 parental parasites = assay: L-[14C]lactate uptake by isolated Dd2 parental parasites; conditions: read-out: IC50, inhibition of L-[14C]lactate uptake; Dd2 (parental) parasites; pH 6.1, 4°C, 20 s; mean ± SEM
native PfFNT = target: T1, native PfFNT (Plasmodium falciparum, UniProt O77389); type: cell-based; conditions: native PfFNT in Xenopus oocytes; pH 6.4, 27.5°C, 10 min; mean ± SEM, n = 4; read-out: IC50, inhibition of PfFNT-mediated L-[14C]lactate transport
T1 construct: expressed in transfected cells; host or cells: Xenopus laevis oocytes (cRNA microinjected, 30 ng)
Method: (§1) The PfFNT-mediated uptake of L-[^14C]lactate by oocytes expressing native PfFNT (black symbols) or oocytes expressing PfFNT^Gly107Ser (white symbols) was measured in the presence of a range of different concentrations of MMV007839 (A) and MMV000972 (B). […] To enable a visual comparison between the native PfFNT and PfFNT^Gly107Ser datasets, only part of the concentration range used for the latter is shown in the main panels. The insets show the data obtained for PfFNT^Gly107Ser over the full concentration range tested. In all cases, the data are averaged from four independent experiments (using oocytes from different frogs) and are shown ± SEM. The uptake was measured at 27.5°C over 10 min at pH 6.4 using 2.7 μM L-[^14C]lactate and 600 μM unlabelled L-lactate.
(§2) The oocyte expression vectors containing PfFNT, PfENT1 and PfCRT were made previously. […] The uptake of radiolabelled substrates was measured 2–5 days post-injection at 27.5°C in ND96 buffer (containing 96 mM NaCl, 2 mM KCl, 1 mM MgCl2, 1.8 mM CaCl2, 10 mM MES and 10 mM Tris-base; pH-adjusted to the value specified in the relevant Figure legends). […] The oocytes were then transferred to separate wells of a 96-well plate, lysed with 10% SDS, and the radioactivity measured as described previously.

[3] = test system: PfCRT (from the chloroquine-resistant Dd2 strain); assay: [3H]chloroquine uptake by Xenopus oocytes expressing PfCRT; type: cell-based, Plasmodium falciparum; conditions: 1 μM and 4 μM; pH 5.5
Description: (§3) (PfCRT; from the chloroquine-resistant Dd2 strain) and on [^3H]hypoxanthine transport by oocytes expressing the P. falciparum equilibrative nucleoside/nucleobase transporter PfENT1 [27, 28].
The oocyte expression vectors containing PfFNT, PfENT1 and PfCRT were made previously. The Gly107Ser mutant form of PfFNT was generated through site-directed mutagenesis of the oocyte expression vector containing wild-type (3D7) PfFNT using primers 9 and 10 (S2 Table). Oocytes were harvested from adult female Xenopus laevis frogs and prepared as described previously. cRNA was made using the mMessage mMachine T7 transcription kit and the MEGAclear kit (Ambion) and microinjected into oocytes as outlined elsewhere. […] The uptake of radiolabelled substrates was measured 2–5 days post-injection at 27.5°C in ND96 buffer (containing 96 mM NaCl, 2 mM KCl, 1 mM MgCl2, 1.8 mM CaCl2, 10 mM MES and 10 mM Tris-base; pH-adjusted to the value specified in the relevant Figure legends). […] The oocytes were then transferred to separate wells of a 96-well plate, lysed with 10% SDS, and the radioactivity measured as described previously.
The data are averaged from four to five independent experiments (performed using oocytes from different frogs) and are shown + SEM. In B, the uptake of [^3H]hypoxanthine (0.36 μM) was measured over 30 min at pH 6.0. […]

[4] = test system: isolated 3D7 P. falciparum trophozoites; assay: L-[14C]lactate uptake by isolated 3D7 trophozoites; conditions: pH 6.1, 4°C, 20 s
PfFNT^Gly107Ser = target: T2, PfFNT^Gly107Ser (Plasmodium falciparum, UniProt O77389, G107S); assay: PfFNT-mediated L-[14C]lactate uptake by Xenopus oocytes expressing PfFNT Gly107Ser; type: cell-based; conditions: PfFNT Gly107Ser in Xenopus oocytes; pH 6.4, 27.5°C, 10 min; mean ± SEM, n = 4; read-out: IC50, inhibition of PfFNT-mediated L-[14C]lactate transport
T2 construct: expressed in transfected cells; host or cells: Xenopus laevis oocytes (cRNA microinjected, 30 ng)
T2 sequence (O77389 1-309 G107S): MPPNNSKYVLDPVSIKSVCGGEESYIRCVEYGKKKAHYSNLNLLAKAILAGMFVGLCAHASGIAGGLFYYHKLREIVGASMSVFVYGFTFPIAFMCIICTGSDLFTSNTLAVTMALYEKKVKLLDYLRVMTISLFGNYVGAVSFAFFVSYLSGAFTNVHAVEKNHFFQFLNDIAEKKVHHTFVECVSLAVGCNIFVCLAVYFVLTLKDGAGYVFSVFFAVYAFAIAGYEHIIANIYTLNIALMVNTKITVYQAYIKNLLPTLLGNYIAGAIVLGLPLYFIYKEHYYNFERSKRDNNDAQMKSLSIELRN
Method: as §1, §2

[5] = test system: PfFNT^Gly107Ser mutant parasites (MMV007839-selected culture B); assay: L-[14C]lactate uptake by isolated PfFNT Gly107Ser mutant parasites; conditions: read-out: IC50, inhibition of L-[14C]lactate transport, pH 6.1, 4°C, 20 s, mean ± SEM
PfENT1 = assay: [3H]hypoxanthine uptake by Xenopus oocytes expressing PfENT1; type: cell-based, Plasmodium falciparum
Description: as §3
The oocyte expression vectors containing PfFNT, PfENT1 and PfCRT were made previously. The Gly107Ser mutant form of PfFNT was generated through site-directed mutagenesis of the oocyte expression vector containing wild-type (3D7) PfFNT using primers 9 and 10 (S2 Table). Oocytes were harvested from adult female Xenopus laevis frogs and prepared as described previously. cRNA was made using the mMessage mMachine T7 transcription kit and the MEGAclear kit (Ambion) and microinjected into oocytes as outlined elsewhere. The amount of cRNA injected (per oocyte) was 30 ng for PfFNT, 10 ng for PfENT1, and 20 ng for PfCRT. The uptake of radiolabelled substrates was measured 2–5 days post-injection at 27.5°C in ND96 buffer (containing 96 mM NaCl, 2 mM KCl, 1 mM MgCl2, 1.8 mM CaCl2, 10 mM MES and 10 mM Tris-base; pH-adjusted to the value specified in the relevant Figure legends). […] Each experiment used ten oocytes for each condition tested. The influx of the radiolabelled substrate was halted by removing the reaction buffer and washing the oocytes twice in ice-cold ND96 buffer (3.5 mL). The oocytes were then transferred to separate wells of a 96-well plate, lysed with 10% SDS, and the radioactivity measured as described previously.
The data are averaged from four to five independent experiments (performed using oocytes from different frogs) and are shown + SEM. In B, the uptake of [^3H]hypoxanthine (0.36 μM) was measured over 30 min at pH 6.0. […] The data are averaged from three to six independent experiments (performed using oocytes from different frogs) and are shown + SEM. […] (TIF) Click here for additional data file.

[6] = test system: MMV007839-selected culture A (PfFNT Gly107Ser); assay: Parasite proliferation assay, MMV007839-selected culture A; type: cell-based, Plasmodium falciparum
Method: (§4) Parasite proliferation was measured in 96-well plates using a fluorescent DNA-intercalating dye. The assays were initiated with erythrocytes infected with predominantly ring-stage parasites, and the starting parasitaemia was 0.5–1% and the haematocrit was 1%.
(§5) For MMV007839-selected culture A, the drug concentration was increased by 5 nM increments on Day 18, Day 21, and every two days thereafter. […] The cultures were provided with fresh medium and blood and diluted to reduce the parasitaemia as needed.

[7] = test system: MMV007839-selected culture B (PfFNT Gly107Ser); assay: Parasite proliferation assay, MMV007839-selected culture B; type: cell-based, Plasmodium falciparum; conditions: MMV007839-selected culture B; mean ± SEM; read-out: IC50 value, growth inhibition
Method: as §4, §5

T1 sequence (O77389 whole entry): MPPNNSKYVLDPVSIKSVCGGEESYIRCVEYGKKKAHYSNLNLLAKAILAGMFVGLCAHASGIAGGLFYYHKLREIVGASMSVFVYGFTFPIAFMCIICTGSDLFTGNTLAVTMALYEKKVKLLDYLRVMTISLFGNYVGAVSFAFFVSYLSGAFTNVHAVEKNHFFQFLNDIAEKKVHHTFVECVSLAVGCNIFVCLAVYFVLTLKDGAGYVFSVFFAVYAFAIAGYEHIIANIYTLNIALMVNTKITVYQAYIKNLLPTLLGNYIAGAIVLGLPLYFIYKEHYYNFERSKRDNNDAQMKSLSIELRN

In the case of `O=C1CC(O)(C(F)(F)C(F)(F)F)Oc2ccccc21` (stereo not drawn) [MMV000972], the IC50 (Dd2 parent parasites) is listed as 1.8 ± 0.2 µM, the IC50 (3D7 parasites) is listed as 2.6 µM and the “Lactate-induced abrupt acidification of parasite cytosol after pre-treatment” value ([1]; 2.5 μM pre-treatment, 10 mM L-lactate, 4°C) is listed as “no such abrupt acidification”. The “Rate of cytosolic acidification after addition of lactate” value ([1]; 2.5 μM, 4°C, 10 mM L-lactate, mean ± SEM, n = 3) was 0.015 ± 0.006 pH unit/min, the “Rate of cytosolic acidification before addition of lactate” value ([1]; 2.5 μM, 4°C, mean ± SEM, n = 3) was 0.012 ± 0.003 pH unit/min and the “Cytosolic pH restored after restoration of glucose” value ([1]; 2.5 μM, glucose (22 mM) restored to glucose-deprived parasites, gradual alkalinisation after initial acidification of ~2 min) was “approximately 7.1”. For the same molecule, the “Effect on cytosolic pH in glucose-containing medium” value ([1]; glucose-containing medium, 37°C (Fig 2B,C: 1 μM)) was “cytosolic acidification”, the “Effect on L-[14C]lactate transport into control (non-injected) oocytes” value (non-injected oocytes) was “no changes” and the “Toxicity in Malaria Box toxicity testing” value [2] was “display toxicity in some assays”. For the same molecule, the IC50 (Dd2 parental parasites) was 0.049 ± 0.014 µM, the IC50 (native PfFNT) was 0.05 ± 0.001 µM and the “Effect on transport of [3H]chloroquine via PfCRT” value [3] was “not inhibiting”. The “Inhibition of L-[14C]lactate influx” value ([4]; 0.5 μM) was “complete inhibition”, the “Inhibition of L-[14C]lactate uptake” value ([4]; 2 μM) was “complete inhibition” and the IC50 (PfFNT^Gly107Ser) was 6.3 ± 0.9 µM. For the same molecule, the IC50 [5] was 15.2 ± 1.9 µM, the “Inhibition of [3H]hypoxanthine uptake by PfENT1-expressing oocytes” value (PfENT1; 1 μM and 4 μM, pH 6.0, 30 min) was “not inhibiting” and the “Effect on [3H]hypoxanthine uptake by PfENT1-expressing oocytes” value (PfENT1; 1 μM, P < 0.05) was “slight increase”. For the same molecule, the IC50 ([6]; MMV007839-selected culture A, mean ± SEM, read-out: IC50 value, growth inhibition) was 59.6 ± 0.4 µM, the “Fold increase of growth IC50 relative to Dd2 parent” value ([6]; both MMV007839-selected cultures (A and B) vs Dd2 parent) was over 30 fold and the IC50 [7] was 59.7 ± 1.4 µM.
